The record followed here is ChEMBL document CHEMBL5104171 (Bioorg Med Chem Lett, 2022).

In brackets after ≈: the same amount, converted by molar mass.

The target in series [1] is Hepatocyte growth factor receptor (Homo sapiens, UniProt P08581). Briefly: Inhibition of N-terminal His-Glu-TEV-tagged MET (unknown origin) (1050 to 1360 residues) measured by spectrophotometric analysis.
Series [2] is described as follows: Inhibition of RANKL-induced human osteoclast precursor cells differentiation in presence of human M-CSF and measured by tartrate-resistant acid phosphatase activity assay. The class given is functional, cell-based.
Series [3] is described as follows: Plasma concentration in DBA/1 mouse at 15 mg/kg, po administered once daily for 6 days and measured at 2 hrs. As to conditions: time 6 day. The class given is ADME, organism-based.
The nature of series [4]: Plasma concentration in DBA/1 mouse at 15 mg/kg, po administered once daily for 6 days and measured at 4 hrs. As to conditions: time 6 day. The class given is ADME, organism-based.
Series [5] in a line: Plasma concentration in DBA/1 mouse at 15 mg/kg, po administered once daily for 6 days and measured at 6 hrs. The class given is ADME, organism-based. The conditions noted are these: time 6 day.
Series [6] in a line: Plasma concentration in DBA/1 mouse at 15 mg/kg, po administered once daily for 6 days and measured at 8 hrs. The format is ADME, organism-based. The conditions noted are these: time 6 day.
Series [7] in a line: Plasma concentration in DBA/1 mouse at 15 mg/kg, po administered once daily for 6 days and measured at 12 hrs. The format is ADME, organism-based. The conditions noted are these: time 6 day.
A short description of series [8]: Plasma concentration in DBA/1 mouse at 15 mg/kg, po administered once daily for 6 days and measured at 18 hrs. The format is ADME, organism-based. As to conditions: time 6 day.
Series [9] is described as follows: Plasma concentration in DBA/1 mouse at 15 mg/kg, po administered once daily for 6 days and measured at 24 hrs. The class given is ADME, organism-based. As to conditions: time 6 day.
Series [10] is described as follows: Aqueous solubility of compound at pH 7.4. The format is physicochemical.
Series [11] is described as follows: Permeability across apical to basolateral side in human Caco-2 cells. The format is ADME, cell-based. As to conditions: read-out: permeability. Background: Caco-2 monolayers are a common model of the intestinal barrier.
Series [12] is described as follows: Plasma protein binding in mouse. The class given is ADME, cell-free. The conditions noted are these: read-out: PPB (converted).
Series [13] is described as follows: Plasma protein binding in human. The class given is ADME, cell-free. The conditions noted are these: read-out: PPB (converted).
Series [14] is described as follows: Metabolic stability in mouse liver microsomes assessed as compound remaining at 60 mins. The conditions noted are these: read-out: Stability. The format is ADME, Microsome.
Series [15] in a line: Metabolic stability in human liver microsomes assessed as compound remaining at 60 mins. The format is ADME, Microsome. The conditions noted are these: read-out: Stability. Background: Microsomes from liver hold many membrane-bound enzymes, among them those of drug oxidation.
A short description of series [16]: animal or person. As to conditions: Mus musculus, DBA/1, 144 h, read-out: INH.
Series [17] can be described thus: animal or person. The conditions noted are these: Mus musculus, DBA/1, 144 h, read-out: INH. The source holds these as a separate data set.
Series [18] in a line: animal or person. As to conditions: Mus musculus, DBA/1, 144 h, read-out: INH. The source holds these as a separate data set.
Series [19] can be described thus: animal or person. As to conditions: Mus musculus, DBA/1, 144 h, read-out: INH. The source holds these as a separate data set.
Series [20] can be described thus: animal or person. The conditions noted are these: Mus musculus, DBA/1, 144 h, read-out: INH. The source holds these as a separate data set.
Series [21] can be described thus: animal or person. The conditions noted are these: Mus musculus, DBA/1, 144 h, read-out: INH. The source holds these as a separate data set.
The nature of series [22]: animal or person. As to conditions: Mus musculus, DBA/1, 144 h, read-out: INH. The source holds these as a separate data set.

Hepatocyte growth factor receptor, sequence (P08581 whole entry, the tested form may be a part): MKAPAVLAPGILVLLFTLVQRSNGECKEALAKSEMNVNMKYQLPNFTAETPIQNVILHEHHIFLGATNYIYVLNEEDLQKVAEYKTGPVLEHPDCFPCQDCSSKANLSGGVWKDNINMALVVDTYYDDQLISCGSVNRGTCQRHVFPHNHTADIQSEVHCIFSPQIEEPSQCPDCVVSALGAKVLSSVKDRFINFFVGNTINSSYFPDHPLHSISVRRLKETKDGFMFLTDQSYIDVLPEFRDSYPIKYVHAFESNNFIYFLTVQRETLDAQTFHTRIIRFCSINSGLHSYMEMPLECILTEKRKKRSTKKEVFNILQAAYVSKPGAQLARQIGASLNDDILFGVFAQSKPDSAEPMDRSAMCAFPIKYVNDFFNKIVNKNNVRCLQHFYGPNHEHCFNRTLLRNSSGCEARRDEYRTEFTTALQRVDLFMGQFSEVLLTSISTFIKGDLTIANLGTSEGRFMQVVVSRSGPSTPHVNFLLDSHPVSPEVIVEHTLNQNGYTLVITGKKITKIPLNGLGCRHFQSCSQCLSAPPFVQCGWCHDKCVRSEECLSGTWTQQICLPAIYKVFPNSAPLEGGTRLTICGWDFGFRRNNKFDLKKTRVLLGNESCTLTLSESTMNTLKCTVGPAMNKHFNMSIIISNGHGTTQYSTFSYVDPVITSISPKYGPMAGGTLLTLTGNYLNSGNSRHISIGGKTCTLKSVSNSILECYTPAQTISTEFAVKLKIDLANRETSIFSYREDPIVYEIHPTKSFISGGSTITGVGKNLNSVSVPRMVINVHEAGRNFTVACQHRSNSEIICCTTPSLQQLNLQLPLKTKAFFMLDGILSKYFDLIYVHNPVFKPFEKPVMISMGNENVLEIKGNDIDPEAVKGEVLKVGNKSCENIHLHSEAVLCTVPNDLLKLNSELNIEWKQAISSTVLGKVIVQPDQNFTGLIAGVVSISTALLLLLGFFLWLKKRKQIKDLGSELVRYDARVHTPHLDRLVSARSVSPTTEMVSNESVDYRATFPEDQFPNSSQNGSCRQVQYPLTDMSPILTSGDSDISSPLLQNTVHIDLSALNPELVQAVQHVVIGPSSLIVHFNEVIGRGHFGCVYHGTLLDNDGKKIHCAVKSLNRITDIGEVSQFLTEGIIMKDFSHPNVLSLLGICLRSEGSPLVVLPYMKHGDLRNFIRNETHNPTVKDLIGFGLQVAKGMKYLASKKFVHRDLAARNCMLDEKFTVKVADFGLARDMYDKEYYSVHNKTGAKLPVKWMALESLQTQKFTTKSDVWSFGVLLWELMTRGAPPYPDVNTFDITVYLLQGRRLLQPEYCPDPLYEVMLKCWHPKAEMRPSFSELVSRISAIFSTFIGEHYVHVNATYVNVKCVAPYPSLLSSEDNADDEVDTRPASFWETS

For orientation: IC50 means the concentration at which inhibition is half-maximal. `FC(F)(F)c1ccc(CNc2ccc(Cc3c[nH]c4ncc(Cl)cc34)cn2)cn1` [PEXIDARTINIB] returned an IC50 in series [1] above 3300 nM.
On to `CN(C)CC(=O)N1CCC(c2ccc(NC(=O)c3nc(C#N)c[nH]3)c(C3=CCCCC3)c2)CC1`, for which the IC50 in series [2] came to 1.7 nM.
For orientation: solubility means the concentration that dissolves in the medium under given conditions. With `Cc1nc(NC(=O)NC(=O)C(C)(C)C)ccc1Oc1ccnc(-c2cnn(C)c2)c1`, the concentration at 144 h is 2250 ng/mL in [3]; 1860 ng/mL in series [4]; 1430 ng/mL in series [5]; 1350 ng/mL in series [6]; 163 ng/mL in series [7]; 125 ng/mL in series [8]. This compound gave a concentration at 144 h in [9] of 86 ng/mL. The compound also yielded a solubility in series [10] of 95.6 µM (≈ 39 µg/mL). Further, the Papp A→B in [11] is 13.9 ×10⁻⁶ cm/s. The fraction unbound is 0.041 in series [12] and 0.023 in series [13]. Also, the remaining at 1 h in [14] came to 91%; in series [15], 100%. The inhibition in vivo at 15 mg/kg was determined as 88% in the series “animal or person [16]”; 89% in the series “animal or person [17]”; 94% in “animal or person [18]”; 75% in “animal or person [19]”; 14% in “animal or person [20]”; 18% in “animal or person [21]”. In addition, in the series “animal or person [22]”, the inhibition in vivo at 15 mg/kg is -4%.
